According to patent US20260138970A1, “MODULATORS OF THE CALCIUM SIGNALING CASCADE” (FONDAZIONE TELETHON ETS, priority 2022, published 2026):

What was measured:
Type in all cases: cell-based
TMEM16A [1] = test: HS-YFP assay in FRT cells co-expressing TMEM16A and HS-YFP; settings: for potentiation of the effect of UTP on TMEM16A: primary screening and secondary tests, compounds 10 μM
Description: Experiments were performed using an automated microplate reader (FLUOstar Omega, BMG Labtech, Offenburg, Germany) equipped with syringe pumps and optical excitation/emission filters optimized for yellow fluorescent protein (YFP) fluorescence (ET500/20× and ET535/30m, respectively; Chroma Technology Corporation). FRT cells with co-expression of TMEM16A and HS-YFP were plated at high density in black wall/clear bottom 96-well microplates (3603, Corning). Each well in microplates was washed 3 times with 150 μl of phosphate-buffered saline (PBS). After washing, each well received 60 μl of PBS containing test compounds at 10 μM final concentration, or TMEM16A inhibitor Ani9 (15) (10 μM), or vehicle. After 20 min of incubation at 37° C., microplates were transferred to the plate reader for fluorescence assay. Each well was assayed individually for TMEM16A-mediated I^− influx by sampling cell fluorescence every 200 ms for 14 s. Two seconds after the start of reading, 165 μl of a modified PBS containing 137 mM KI, instead of NaCl, plus UTP 0.25 μM were automatically added by the reader. K^+ was used in the injected solution to prevent changes of membrane potential due to altered activity of Ca^2+-activated K^+ channels. The fluorescence trace in each well was corrected by background subtraction and then normalized for the initial value measured before I^− addition (F0). The cumulative fluorescence quenching (CFQ) in the time interval between 3 and 13.8 s (representing integration of TMEM16A-dependent I^− influx) was quantified using a procedure compiled in Microsoft Excel according to the formula
For the screening, FRT cells were plated at high density in 96-well microplates. After 48 h, TMEM16A activity was evaluated in a microplate reader by injection in each well of a saline solution containing I^− instead of Cl^− and a submaximal (0.25 μM) UTP concentration (FIG. 1A). Upon injection, UTP triggers Ca^2+ mobilization and TMEM16A activation. The resulting TMEM16A-dependent I^− influx causes HS-YFP quenching. The presence in the well of a small molecule that potentiates TMEM16A activity, in a direct or indirect way, is therefore expected to enhance the rate of HS-YFP quenching.

TMEM16A [2] = test: Short-circuit current recordings on FRT epithelia with stable expression of TMEM16A; settings: compounds 10 μM; UTP 0.25 μM apical; vs vehicle; FIG. 1C
Description: Snapwell supports (3801, Corning) carrying FRT and differentiated HBEC epithelia were mounted in a vertical chamber resembling an Ussing system with internal fluid circulation (EM-CSYS-8, Physiologic Instruments, San Diego, CA, USA). For FRT epithelia, the apical and basolateral hemichambers were filled with solutions of different composition. The apical solution (5 ml) contained (in mM): 63 NaCl, 63 sodium gluconate, 0.38 KH2PO4, 2.13 K2HPO4, 2 CaCl2, 1 MgSO4, 20 Na-Hepes (pH 7.3), and 10 glucose. The basolateral solution (5 ml) instead contained (in mM): 126 KCl, 0.38 KH2PO4, 2.13 K2HPO4, 1 CaCl2, 1 MgSO4, 20 Na-Hepes (pH 7.3), and 10 glucose. Both solutions were continuously bubbled with air and the temperature of the solution was kept at 37° C. For HBECs, the same (bicarbonate-buffered) solution was used in both chambers. The composition of this solution was (in mM): 126 NaCl, 0.38 KH2PO4, 2.13 K2HPO4, 1 MgSO4, 1 CaCl2), 24 NaHCO3, and 10 glucose. Both sides were continuously bubbled with a gas mixture containing 5% CO2 and 95% air. The temperature of the solution was kept at 37° C. throughout the experiment.
Transepithelial voltage was short-circuited with a voltage-clamp (VCC MC8, Physiologic Instruments, San Diego, CA, USA) connected to the apical and basolateral chambers via Ag—AgCl electrodes and agar bridges (2% agar in 1 M KCl). The offset between voltage electrodes and the fluid resistance were cancelled before experiments. The resulting short-circuited current from each channel was recorded on a personal computer with the Acquire & Analize 2.3 software (Physiologic Instruments, San Diego, CA, USA).

ITPR = test: ci-IP3/PM uncaging Ca2+ imaging assay in FRT cells; settings: compounds 10 μM; FIG. 4
Description: FRT and HEK293 cells were cultured in μ-Plate96 microplates (Ibidi) at subconfluent condition. Cells were washed 2 times with PBS (150 μl/wash) and then loaded for 45 min at 37° C. with 1 μM ci-IP3/PM (Tocris; catalog number: 6210/10U) and 5 μM Fluo-4/AM (Thermo Fisher Scientific) in PBS containing 10 mM glucose, 0.5 mM sulfinpyrazone and 1% fetal bovine serum. After 45 min, cells were further incubated for 1 h at 37° C. with a fresh PBS solution containing Fluo-4/AM, glucose, sulfinpyrazone, serum, but no ci-IP3/PM. After the second loading, cells were washed 2 times with PBS-glucose-sulfinpyrazone (150 μl/wash) and incubated for 20 min at 37° C. with 125 μl of PBS plus 10 mM glucose and 0.5 mM sulfinpyrazone containing compounds of interest at 10 μM final concentration or vehicle. Each well was assayed individually using an inverted Olympus microscope equipped with 40×oil immersion objective, 530 nm emission filter, Lambda DG4 (Sutter Instrument Co., Novato, CA, USA) illumination system with a 490 nm excitation filter, (Olympus, Segrate, Italy), Prime cmos camera (Photometrics, Tucson, AZ, USA) and MetaFluor imaging acquisition software (Molecular Devices, Sunnyvale, CA, USA). Time-lapse experiments were carried out with 50 ms exposure time, 0.5 s interval and 1.8 min total duration. […] Analysis was performed with MetaFluor software, by quantifying Fluo-4 fluorescence in manually selected single cell region of interest (ROI). Eight cells were selected in each field to generate an average trace. After background subtraction, fluorescence traces were normalized for the initial value.

[3] = FRT cells expressing TMEM16A, UTP 0.25 μM, FIG. 1D

Compound | concentrations at which effective / active, dose-response by HS-YFP assay (TMEM16A [1]; [3]) [µM] | potentiation of the effect of UTP on TMEM16A (TMEM16A [1]) | peak of Cl- current elicited by UTP (short-circuit current) (TMEM16A [2]) | activity on Ca2+ mobilization by IP3 uncaging, FRT cells (ITPR) | shape of dose-response relationship, HS-YFP assay (TMEM16A [1]; [3])
OCc1ccccc1CN(Cc1ccnc(N2CCCC2)n1)c1ccc(F)cc1 [ARN4550, [2-[[4-Fluoro-N-[(2-pyrrolidin-1-ylpyrimidin-4-yl)methyl]anilino]methyl]phenyl]methanol] | 10 | significantly potentiated | significantly enhanced | inactive | –
CCc1cc(-c2cc(NCCCOc3ccccc3C)nc(N)n2)n(C)n1 [ARN7149, 6-(3-Ethyl-1-methyl-1H-pyrazol-5-yl)-N^4-(3-(o-tolyloxy)propyl)pyrimidine-2,4-diamine] | 5 to 20 | significantly potentiated | significantly enhanced | inactive | bell-shaped
CCn1nc2c(c1C(=O)Nc1ccccc1OCC1CCCCO1)CCCC2 (stereo not shown) [ARN11391, 2-Ethyl-N-[2-(tetrahydropyran-2-ylmethoxy)phenyl]-4,5,6,7-tetrahydroindazole-3-carboxamide] | 10 | significantly potentiated | significantly enhanced | showed activity | –
